Measured values from patent publication US4588740A, “Pharmaceutical methods using 4-aminoalkyl-2(3H)-indolones” (priority 1983, dated 1986).

How the values were obtained:
D2 -receptors = molecular target: T1, D2 -receptors (Oryctolagus cuniculus, UniProt G1T1Q0); test: perfused rabbit ear artery test
T1 construct: In the perfused rabbit ear artery test; from tissue; host or cells: perfused rabbit ear artery (receptors on sympathetic nerve terminals)

cardio-accelerator nerve = cardio-accelerator nerve preparation in vivo in the dog
perfused hind limb = perfused hind limb preparation in vivo in the dog
[1] = tested on: DOCA-salt hypertensive rats; test: intravenous infusion in DOCA-salt hypertensive rats; type: in vivo, rat
Excerpt: (§1) Intravenous infusion of this species of this invention in the DOCA-salt hypertensive and spontaneously hypertensive rats reduced blood pressure and heart rate.

[2] = tested on: spontaneously hypertensive rats; test: intravenous infusion in spontaneously hypertensive rats; type: in vivo, rat
Excerpt: as §1

[3] = tested on: conscious DOCA salt hypertensive rats; test: oral dosing in conscious DOCA salt hypertensive rats; type: in vivo, rat; details: oral doses of 10 mg/kg
[4] = absorption from the gastrointestinal tract of rats; type: in vivo, rat; details: oral, compared with the 7-hydroxy congener
[5] = tested on: presynaptic α-dopaminergic receptors (D2 -receptors); test: D2-agonist selectivity (general statement); details: peripheral
Excerpt: Otherwise speaking, the main focus of action is at the presynaptic α-dopaminergic receptors which may also be called "D2 -receptors." Activation of the D2 -receptors on the sympathetic nerve terminals inhibits the release of norepinephrine, thereby, promoting vasodilation, among other beneficial cardiovascular actions and decreasing sympathetic side-effects caused by norepinephrine release in certain abnormal cardiovascular conditions.

T1 sequence (G1T1Q0 1-443): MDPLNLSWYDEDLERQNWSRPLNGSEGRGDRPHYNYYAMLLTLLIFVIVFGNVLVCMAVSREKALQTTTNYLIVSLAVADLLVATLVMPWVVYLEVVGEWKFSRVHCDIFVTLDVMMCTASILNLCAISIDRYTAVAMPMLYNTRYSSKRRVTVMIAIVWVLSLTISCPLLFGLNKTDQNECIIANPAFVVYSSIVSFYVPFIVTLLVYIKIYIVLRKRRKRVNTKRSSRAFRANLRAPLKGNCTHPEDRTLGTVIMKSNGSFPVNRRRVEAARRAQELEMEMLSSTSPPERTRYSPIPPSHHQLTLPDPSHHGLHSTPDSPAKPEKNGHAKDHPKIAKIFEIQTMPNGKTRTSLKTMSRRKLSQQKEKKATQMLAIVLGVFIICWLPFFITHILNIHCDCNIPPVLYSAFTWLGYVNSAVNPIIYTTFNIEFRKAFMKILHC

Which results are given for CCCN(CCC)CCc1cccc2c1CC(=O)N2.Cl [4-(2-di-n-propylaminoethyl)-2(3H)-indolone hydrochloride]?
EC50 (D2 -receptors): 72 nM; activity in vivo (cardio-accelerator nerve): active; activity in vivo (perfused hind limb): active; tachyphylaxis (perfused hind limb): did not cause tachyphylaxis; blood pressure [1]: reduced; heart rate [1]: reduced; blood pressure [2]: reduced; heart rate [2]: reduced; anti-hypertensive effect [3]: demonstrated an anti-hypertensive effect; absorption from the gastrointestinal tract [4]: more readily absorbed; D2-agonist selectivity [5]: selective peripheral D2 -agonists
